Measurements from patent publication US4839357A, “Renin inhibitors containing phenylalanyl-histidine replacements” (Merck & Co., Inc., priority 1987, dated 1989).
Square brackets hold non-standard residues; d marks the D form. Peptide text beside a SMILES is read from it. * marks the point of attachment. Sta = CC(C)C[C@H](N)[C@@H](O)CC(=O)O; Isovaleryl = CC(C)CC(=O)*

Columns and labels:
renin = biological target: T1, renin (Homo sapiens, UniProt P00797); assay: renin inhibition (IC50 printed in the synthesis text, no method described); assay type: biochemical
T1 sequence (P00797 67-406): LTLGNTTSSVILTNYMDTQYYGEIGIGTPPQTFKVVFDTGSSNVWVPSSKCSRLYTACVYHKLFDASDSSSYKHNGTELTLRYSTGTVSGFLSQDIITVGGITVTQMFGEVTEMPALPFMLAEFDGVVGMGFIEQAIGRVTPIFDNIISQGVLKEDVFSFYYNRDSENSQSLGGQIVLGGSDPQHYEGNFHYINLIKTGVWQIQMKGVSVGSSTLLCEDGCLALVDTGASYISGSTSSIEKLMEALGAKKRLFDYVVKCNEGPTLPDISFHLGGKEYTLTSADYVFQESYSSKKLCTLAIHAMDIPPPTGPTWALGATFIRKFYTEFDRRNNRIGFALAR

hog renin = settings: after the injection of hog renin into nephrectomized rats; cited from earlier work

Row | Structure (SMILES) | IC50 (renin) [nM] | blood pressure in vivo (hog renin)
1 | CC(C)S(=O)(=O)C[C@@H](CCc1ccccc1)C(=O)N[C@@H](Cc1c[nH]cn1)C(=O)N[C@@H](CC1CCCCC1)[C@@H](O)CC(=O)NC1CN2CCC1CC2 (stereo partly drawn) [3-benzyl-2-(S)-(isopropylsulfonylmethyl)propionyl-L-histidyl-(3S,4S)-4-amino-5-cyclohexyl 3-hydroxypentanoyl 3-quinuclidinyl amide] | 11 | 
2 | CC(C)CC(=O)N[C@H](C(=O)N[C@H](C(=O)N[C@@H](CC(C)C)[C@@H](O)CC(=O)N[C@@H](C)C(=O)N[C@@H](CC(C)C)[C@@H](O)CC(=O)O)C(C)C)C(C)C [pepstatin] (Isovaleryl-VV[Sta]A[Sta]-OH) |  | reduces blood pressure
